For test [1], the system named is RKO colon adenocarcinoma cells (RKOp27) arrested by the expression of ectopic p27Kip1. Kind of test: Alamar Blue cell viability assay on RKOp27 cells arrested by p27Kip1 expression induced by Ponasterone A. The test is classed as cell-based. The following applies: Homo sapiens, 72 hours incubation, 10 μM Ponasterone A, read-out: IC50 RKO p27 induced (arrested). In outline: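 RKOp27 cells, 15000/well, held in DMEM with 10% FCS and with or without 10 μM Ponasterone A to induce p27Kip1 arrest. Compound dilutions added 24 h after seeding, then 72 h at 37 °C in quadruplicate. Alamar Blue fluorescence (544/590 nm) gave % viability relative to untreated cells.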
For orientation: Alamar Blue is a resazurin reagent that responds to reducing activity.

In test [2] the test system is RKO (RKOp27) human colon adenocarcinoma cells. Kind of test: Alamar Blue cell viability assay, anti-proliferative/cytotoxic activity on proliferating (uninduced) RKOp27 cells. The test is classed as cell-based. Particulars: 72 hours incubation, absence of the inducer Ponasterone A, read-out: IC50 RKO p27 uninduced (proliferating). In outline: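 RKOp27 subclones seeded at 5000 cells/well, compounds added after 24 h in DMEM/10% FCS, quadruplicates, 72 h at 37 °C, 5% CO2. Alamar Blue fluorescence (ex 544/em 590 nm) normalised to untreated cells (1% DMSO medium) as 100%; IC50 from concentration-effect curves.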

A value given as a limit tells only on which side of the number the result lay.

For orientation: IC50 means the concentration needed to halve the response being measured.

For `COCCOCC(=O)N1CCc2c(sc(NC(=O)CCc3cccc(OC)c3)c2C#N)C1` [Example 30, N-{3-Cyano-6-[2-(2-methoxy-ethoxy)-ethanoyl]-4,5,6,7-tetrahydro-thieno[2,3-c]pyridin-2-yl}-3-(3-methoxy-phenyl)-propionamide], the values for the IC50 in test [1] and in test [2] were above 100000 nM and 300 to 2000 nM, respectively.

Turning to `COc1cccc(CCC(=O)Nc2sc3c(c2C#N)CCN(C(=O)Cc2ccccn2)C3)c1` [Example 31, N-[3-Cyano-6-(2-pyridin-2-yl-ethanoyl)-4,5,6,7-tetrahydro-thieno[2,3-c]pyridin-2-yl]-3-(3-methoxy-phenyl)-propionamide], the IC50 in test [1] is above 100000 nM; in test [2], at most 300 nM.

For the molecule `COCCC(=O)N1CCc2c(sc(NC(=O)CCc3cc(C)ccc3OC)c2C#N)C1` [Example 32, N-[3-Cyano-6-(3-methoxy-propanoyl)-4,5,6,7-tetrahydro-thieno[2,3-c]pyridin-2-yl]-3-(2-methoxy-5-methyl-phenyl)-propionamide], the results for the IC50 in test [1] and in test [2] were above 100000 nM and 300 to 2000 nM, respectively.

For the molecule `COCC(=O)N1CCc2c(sc(NC(=O)CCc3cc(C)ccc3OC)c2C#N)C1` [Example 33, N-[3-Cyano-6-(2-methoxy-ethanoyl)-4,5,6,7-tetrahydro-thieno[2,3-c]pyridin-2-yl]-3-(2-methoxy-5-methyl-phenyl)-propionamide], the IC50 in test [1] was above 100000 nM; in test [2], 300 to 2000 nM.

As to `COc1ccc(C)cc1CCC(=O)Nc1sc2c(c1C#N)CCN(C(=O)CCc1cc(C)ccn1)C2` [Example 34, N-{3-Cyano-6-[3-(4-methyl-pyridin-2-yl)-propanoyl]-4,5,6,7-tetrahydro-thieno[2,3-c]pyridin-2-yl}-3-(2-methoxy-5-methyl-phenyl)-propionamide], the figures for the IC50 in test [1] and in test [2] were above 100000 nM and 300 to 2000 nM, respectively.

In the case of `CCCC(=O)N1CCc2c(sc(NC(=O)CCc3cc(C)ccc3OC)c2C#N)C1` [Example 35, N-(6-Butyryl-3-cyano-4,5,6,7-tetrahydro-thieno[2,3-c]pyridin-2-yl)-3-(2-methoxy-5-methyl-phenyl)-propionamide], the IC50 is above 100000 nM in test [1] and at most 300 nM in test [2].

Regarding `COc1ccc(OC)c(CCC(=O)Nc2sc3c(c2C#N)CCN(C(=O)Cc2cccnc2)C3)c1` [Example 36, N-[3-Cyano-6-(2-pyridin-3-yl-ethanoyl)-4,5,6,7-tetrahydro-thieno[2,3-c]pyridin-2-yl]-3-(2,5-dimethoxy-phenyl)-propionamide], the half-inhibitory concentration (IC50) in test [1] was above 100000 nM; in test [2], 300 to 2000 nM.

As to `COc1ccc(C)cc1CCC(=O)Nc1sc2c(c1C#N)CCN(C(=O)Cc1cccnc1)C2` [Example 37, N-[3-Cyano-6-(2-pyridin-3-yl-ethanoyl)-4,5,6,7-tetrahydro-thieno[2,3-c]pyridin-2-yl]-3-(2-methoxy-5-methyl-phenyl)-propionamide], the IC50 in test [1] is above 100000 nM; in test [2], at most 300 nM.

As for `COc1ccc(C)cc1CCC(=O)Nc1sc2c(c1C#N)CCN(C(=O)CCc1ccncn1)C2` [Example 38, N-[3-Cyano-6-(3-pyrimidin-4-yl-propanoyl)-4,5,6,7-tetrahydro-thieno[2,3-c]pyridin-2-yl]-3-(2-methoxy-5-methyl-phenyl)-propionamide], the IC50 in test [1] is above 100000 nM; in test [2], 300 to 2000 nM.

In the case of `COc1cccc(CCC(=O)Nc2sc3c(c2C#N)CCN(C(=O)Cc2cccnc2)C3)c1` [Example 39, N-[3-Cyano-6-(2-pyridin-3-yl-ethanoyl)-4,5,6,7-tetrahydro-thieno[2,3-c]pyridin-2-yl]-3-(3-methoxy-phenyl)-propionamide], the half-inhibitory concentration (IC50) in test [1] was at least 40000 nM; in test [2], at most 300 nM.

In the case of `COc1ccc(C)cc1CCC(=O)Nc1sc2c(c1C#N)CCN(C(=O)CCn1ccnc1)C2` [Example 40, N-[3-Cyano-6-(3-imidazol-1-yl-propanoyl)-4,5,6,7-tetrahydro-thieno[2,3-c]pyridin-2-yl]-3-(2-methoxy-5-methyl-phenyl)-propionamide], the IC50 in test [1] is at least 40000 nM; in test [2], 300 to 2000 nM.

With `COc1ccc(C)cc1CCC(=O)Nc1sc2c(c1C#N)CCN(C(=O)CCc1cnccc1OC)C2` [Example 41, N-{3-Cyano-6-[3-(4-methoxy-pyridin-3-yl)-propanoyl]-4,5,6,7-tetrahydro-thieno[2,3-c]pyridin-2-yl}-3-(2-methoxy-5-methyl-phenyl)-propionamide], the IC50 in test [1] is at least 40000 nM; in test [2], 300 to 2000 nM.

Turning to `COc1cccc(CCC(=O)Nc2sc3c(c2C#N)CCN(C(=O)Cn2ccnc2)C3)c1` [Example 55, N-[3-Cyano-6-(2-imidazol-1-yl-ethanoyl)-4,5,6,7-tetrahydro-thieno[2,3-c]pyridin-2-yl]-3-(3-methoxy-phenyl)-propionamide], the IC50 in test [1] was at least 40000 nM; in test [2] it was 300 to 2000 nM.

`COc1cccc(C(C)CC(=O)Nc2sc3c(c2C#N)CCN(C(=O)Cc2ccccn2)C3)c1` (stereo not shown) [Example 58, N-[3-Cyano-6-(2-pyridin-2-yl-ethanoyl)-4,5,6,7-tetrahydro-thieno[2,3-c]pyridin-2-yl]-3-(3-methoxy-phenyl)-butyramide]: the IC50 in test [1] is above 100000 nM; in test [2], 300 to 2000 nM.

Turning to `COc1ccccc1CCC(=O)Nc1sc2c(c1C#N)CCN(C(=O)Cc1ccccn1)C2` [Example 59, N-[3-Cyano-6-(2-pyridin-2-yl-ethanoyl)-4,5,6,7-tetrahydro-thieno[2,3-c]pyridin-2-yl]-3-(2-methoxy-phenyl)-propionamide], the figures for the IC50 in test [1] and in test [2] were at least 40000 nM and at most 300 nM, respectively.

As to `COc1ccc(C)cc1CCC(=O)Nc1sc2c(c1C#N)CCN(C(=O)Cc1ccccn1)C2` [Example 60, N-[3-Cyano-6-(2-pyridin-2-yl-ethanoyl)-4,5,6,7-tetrahydro-thieno[2,3-c]pyridin-2-yl]-3-(2-methoxy-5-methyl-phenyl)-propionamide], the results for the IC50 in test [1] and in test [2] were above 100000 nM and at most 300 nM, respectively.

For the molecule `COc1cccc(CCC(=O)Nc2sc3c(c2C#N)CCN(C(=O)Cc2ccncc2)C3)c1` [Example 72, N-[3-Cyano-6-(2-pyridin-4-yl-ethanoyl)-4,5,6,7-tetrahydro-thieno[2,3-c]pyridin-2-yl]-3-(3-methoxy-phenyl)-propionamide], the IC50 in test [1] was above 100000 nM; in test [2], at most 300 nM.

Consider `CCOc1ccccc1CCC(=O)Nc1sc2c(c1C#N)CCN(C(=O)Cc1ccncc1)C2` [Example 73, N-[3-Cyano-6-(2-pyridin-4-yl-ethanoyl)-4,5,6,7-tetrahydro-thieno[2,3-c]pyridin-2-yl]-3-(2-ethoxy-phenyl)-propionamide], for which the concentration for half-maximal inhibition (IC50) in test [1] was at least 40000 nM; in test [2], at most 300 nM.

As to `COc1ccc(C)cc1CCC(=O)Nc1sc2c(c1C#N)CCN(C(=O)Cc1ccncc1)C2` [Example 74, N-[3-Cyano-6-(2-pyridin-4-yl-ethanoyl)-4,5,6,7-tetrahydro-thieno[2,3-c]pyridin-2-yl]-3-(2-methoxy-5-methyl-phenyl)-propionamide], the IC50 in test [1] is above 100000 nM; in test [2], at most 300 nM.

As to `COc1ccccc1CCC(=O)Nc1sc2c(c1C#N)CCN(C(=O)Cn1ccnc1)C2` [Example 84, N-[3-Cyano-6-(2-imidazol-1-yl-ethanoyl)-4,5,6,7-tetrahydro-thieno[2,3-c]pyridin-2-yl]-3-(2-methoxy-phenyl)-propionamide], the IC50 in test [1] was at least 40000 nM; in test [2], at most 300 nM.

In the case of `CCOc1ccccc1CCC(=O)Nc1sc2c(c1C#N)CCN(C(=O)Cn1ccnc1)C2` [Example 85, N-[3-Cyano-6-(2-imidazol-1-yl-ethanoyl)-4,5,6,7-tetrahydro-thieno[2,3-c]pyridin-2-yl]-3-(2-ethoxy-phenyl)-propionamide], the IC50 in test [1] is at least 40000 nM; in test [2] it was at most 300 nM.

With `COc1ccc(C)cc1CCC(=O)Nc1sc2c(c1C#N)CCN(C(=O)Cn1ccnc1)C2` [Example 86, N-[3-Cyano-6-(2-imidazol-1-yl-ethanoyl)-4,5,6,7-tetrahydro-thieno[2,3-c]pyridin-2-yl]-3-(2-methoxy-5-methyl-phenyl)-propionamide], the half-maximal inhibitory concentration (IC50) in test [1] is at least 40000 nM; in test [2] it was 300 to 2000 nM.

For `CCCC(=O)N1CCc2c(sc(NC(=O)CCc3ccccc3OC)c2C#N)C1` [Example 91, N-(6-Butyryl-3-cyano-4,5,6,7-tetrahydro-thieno[2,3-c]pyridin-2-yl)-3-(2-methoxy-phenyl)-propionamide], the IC50 in test [1] was above 100000 nM; in test [2] it was at most 300 nM.

In the case of `COc1ccccc1CCC(=O)Nc1sc2c(c1C#N)CCN(C(=O)CCc1ccccn1)C2` [Example 95, N-[3-Cyano-6-(3-pyridin-2-yl-propanoyl)-4,5,6,7-tetrahydro-thieno[2,3-c]pyridin-2-yl]-3-(2-methoxy-phenyl)-propionamide], the values for the half-maximal inhibitory concentration (IC50) in test [1] and in test [2] were above 100000 nM and at most 300 nM, respectively.

In the case of `COc1ccc(C)cc1CCC(=O)Nc1sc2c(c1C#N)CCN(C(=O)CCc1ccccn1)C2` [Example 96, N-[3-Cyano-6-(3-pyridin-2-yl-propanoyl)-4,5,6,7-tetrahydro-thieno[2,3-c]pyridin-2-yl]-3-(2-methoxy-5-methyl-phenyl)-propionamide], the IC50 in test [1] is above 100000 nM; in test [2], 300 to 2000 nM.

With `COc1ccccc1CCC(=O)Nc1sc2c(c1C#N)CCN(C(=O)CCn1ccnc1)C2` [Example 101, N-[3-Cyano-6-(3-imidazol-1-yl-propanoyl)-4,5,6,7-tetrahydro-thieno[2,3-c]pyridin-2-yl]-3-(2-methoxy-phenyl)-propionamide], the values for the IC50 in test [1] and in test [2] were at least 40000 nM and at most 300 nM, respectively.

For the origin of these results see patent US7763728B2, “Tetrahydropyridothiophenes” (4SC AG, priority 2005, dated 2010).
